The values that follow come from ChEMBL document CHEMBL4152312, “Identification of fused pyrimidines as interleukin 17 secretion inhibitors” (Eur J Med Chem, 2018).

Assay [1] concerns PBMC. Description: Inhibition of IL-17 secretion in anti-human CD3 antibody/anti-human CD28 antibody/IL23-stimulated human PBMC after 48 hrs by ELISA. Format: functional, cell-based. (An ELISA detects its analyte on a solid surface through an enzyme-linked reagent.)
For assay [2], the system named is PBMC. As to the kind of experiment: Cytotoxicity against human PBMC assessed as induction of cell death by cell Titer-Glo assay. Format: cell-based. (Cellular ATP, detected with luciferase, serves as a proxy for viable cell number.)
The test system of assay [3] is PBMC. Description: Inhibition of IL-5 secretion in anti-human CD3 antibody/anti-human CD28 antibody/IL23-stimulated human PBMC after 48 hrs by ELISA. The class given is functional, cell-based.

The IC50 is the concentration that inhibits the measured activity by half.

A value given as a limit tells only on which side of the number the result lay.

With `CN(C)CCn1cc(-c2cccc(O)c2)c2c(N[C@H](CO)c3ccccc3)ncnc21`, the half-inhibitory concentration (IC50) in the assay on PBMC [1] was above 10 µM.

For `NC(=O)CC(Nc1ncnc2sc(-c3ccc(CO)cc3)cc12)c1ccccc1` (centres undefined), the half-inhibitory concentration (IC50) in the assay on PBMC [1] is 3.3 µM; in the assay with PBMC [2] it was above 10 µM.

`COc1cccc(-c2cc3c(N[C@H](C)c4ccccc4)ncnc3s2)c1OC` displayed a half-maximal inhibitory concentration (IC50) in the assay with PBMC [1] above 10 µM.

Take `COc1cc(CO)ccc1-c1cc2c(N[C@H](CO)c3ccccc3)ncnc2s1`: the results for the IC50 in the assay on PBMC [1], in the assay on PBMC [3] and with PBMC [2] were 4.6 µM, 14 µM and above 30 µM, respectively.

With `CC(Nc1ncnc2[nH]c(-c3ccc(CO)cc3)cc12)C12CC3CC(CC(C3)C1)C2` (centres undefined), the IC50 in the assay on PBMC [1] was 5 µM; in the assay on PBMC [2], above 10 µM.

`OCc1ccc(-c2cc3c(Nc4cccc(OCc5ccccc5)c4)ncnc3s2)cc1`: in the assay with PBMC [1], the half-inhibitory concentration (IC50) was above 10 µM.

Take `C=Cc1ccc(-c2cc3c(N[C@H](C)c4ccccc4)ncnc3s2)cc1`: in the assay on PBMC [1], the 50% inhibitory concentration (IC50) was above 10 µM.

`COc1cccc(OC)c1-c1cc2c(N[C@H](CO)c3ccccc3)ncnc2s1`: the IC50 with PBMC [1] was 7 µM; in the assay with PBMC [2], above 30 µM.

Take `COc1cc(CO)ccc1-c1cc2c(Nc3ccc(OCc4cccc(F)c4)c(Cl)c3)ncnc2s1`: the figures for the IC50 in the assay with PBMC [1], with PBMC [3] and with PBMC [2] were 9 µM, above 30 µM and 28 µM, respectively.

`COc1ccc(-c2cc3c(N[C@H](C)C4CCCCC4)ncnc3s2)cc1` had an IC50 in the assay on PBMC [1] above 10 µM.

`CN(C)CCn1cc(-c2ccc(F)c(CO)c2)c2c(N[C@H](CO)c3ccccc3)ncnc21` came in with an IC50 in the assay with PBMC [1] above 10 µM.

Regarding `COc1cc(CO)ccc1-c1cc2c(N[C@H](CO)c3ccc(F)cc3)ncnc2[nH]1`, the IC50 is 3.1 µM in the assay with PBMC [1] and above 10 µM in the assay with PBMC [2].

As to `Fc1ccc(-c2cc3c(Nc4cccc(OCc5ccccc5)c4)ncnc3[nH]2)cc1`, in the assay with PBMC [1], the IC50 is above 10 µM.

In turn, `COc1ccccc1-c1cc2c(N[C@H](C)c3ccccn3)ncnc2s1` had an IC50 in the assay on PBMC [1] above 10 µM.

On to `OCc1ccc(-c2cc3c(Nc4cccc(OCc5ccccc5)c4)ncnc3[nH]2)cc1`, for which the results for the IC50 in the assay with PBMC [1] and in the assay on PBMC [2] were 2.2 µM and above 10 µM, respectively.

In turn, `Fc1ccc(Nc2ncnc3sc(-c4ccc(Br)cc4)cc23)cc1Cl` registered a half-maximal inhibitory concentration (IC50) in the assay with PBMC [1] above 10 µM.

In the assay on PBMC [1], `COc1ccc(-c2cc3c(N[C@H](CO)c4ccccc4)ncnc3s2)cc1` displayed an IC50 above 10 µM.

Take `COc1ccc(-c2cc3c(N[C@H](CCO)c4ccccc4)ncnc3s2)cc1`: the IC50 in the assay on PBMC [1] was above 10 µM.

For the compound `C[C@@H](Nc1ncnc2[nH]cc(-c3ccc(F)c(CO)c3)c12)c1ccccc1`, the IC50 with PBMC [1] was 3.1 µM; with PBMC [2], above 10 µM.

In the case of `COc1ccc(-c2cc3c(NC(CC(N)=O)c4ccccc4)ncnc3s2)cc1` (centres undefined), the half-inhibitory concentration (IC50) with PBMC [1] was 4 µM; with PBMC [3], 7.6 to 8 µM; in the assay with PBMC [2], above 30 µM.

The compound `Oc1ccc(-c2cc3c(OC(c4ccccc4)C(F)(F)F)ncnc3s2)cc1` (centres undefined) showed a half-maximal inhibitory concentration (IC50) in the assay with PBMC [1] above 10 µM.

As to `COc1cc(F)ccc1-c1cc2c(N[C@H](CO)c3ccccc3)ncnc2[nH]1`, the IC50 with PBMC [1] is 4.1 to 4.3 µM; in the assay on PBMC [3] it was 1.1 µM; in the assay with PBMC [2] it was above 10 µM.

Turning to `C[C@@H](Nc1ncnc2[nH]cc(-c3ccc(F)c(CNCCN(C)C)c3)c12)c1ccccc1`, the half-inhibitory concentration (IC50) with PBMC [1] was 5 µM; in the assay on PBMC [2] it was above 10 µM.

In the case of `C[C@@H](Nc1ncnc2sc(-c3ccccc3)cc12)c1ccccc1`, the IC50 with PBMC [1] was above 10 µM.

In turn, `Cc1cc(C)c(-c2cc3c(N[C@H](C)c4ccccc4)ncnc3s2)c(C)c1` displayed a concentration for half-maximal inhibition (IC50) in the assay on PBMC [1] above 10 µM.

Compound `COc1ccc(-c2cc3c(N[C@@H](C)CO)ncnc3s2)cc1` displayed a concentration for half-maximal inhibition (IC50) in the assay on PBMC [1] above 10 µM.

In the assay with PBMC [1], `OCc1ccc(-c2cc3c(Nc4ccc(OCc5cccc(F)c5)c(Cl)c4)ncnc3[nH]2)cc1` returned an IC50 above 10 µM.

As for `CS(=O)(=O)CCNCc1ccc(-c2ccc3ncnc(Nc4ccc(OCc5cccc(F)c5)c(Cl)c4)c3c2)o1` [LAPATINIB], the IC50 in the assay with PBMC [2] amounted to 28 µM.

As to `Oc1cccc(-c2c[nH]c3ncnc(Nc4ccc(OCc5cccc(F)c5)c(Cl)c4)c23)c1`, the IC50 with PBMC [1] is above 10 µM.

In turn, `CC(CO)Nc1ncnc2c1c(-c1cccc(O)c1)cn2CCN(C)C` (single isomer, unassigned) registered an IC50 in the assay on PBMC [1] above 10 µM.

Turning to `COc1cccc(OC)c1-c1cc2c(N[C@H](C)c3ccccc3)ncnc2[nH]1`, the IC50 is 4.2 µM in the assay on PBMC [1], 2.5 µM in the assay with PBMC [3] and above 10 µM with PBMC [2].

`CN(C)CCn1cc(-c2ccc(O)cc2)c2c(N[C@H](CO)c3ccccc3)ncnc21`: the IC50 in the assay with PBMC [1] is above 10 µM.

As to `COc1cc(CO)ccc1-c1cc2c(N[C@H](CO)c3ccccc3)ncnc2[nH]1`, the results for the IC50 in the assay on PBMC [1], in the assay on PBMC [3] and in the assay on PBMC [2] were 3.1 to 3.2 µM, 2.3 to 3.5 µM and above 30 µM, respectively.

For `Cn1cc(-c2cccc(O)c2)c2c(N[C@H](CO)c3ccccc3)ncnc21`, the IC50 in the assay on PBMC [1] is 2.8 µM; in the assay with PBMC [2] it was above 10 µM.

In turn, `Fc1ccc(-c2cc3c(Nc4cccc(OCc5ccccc5)c4)ncnc3s2)cc1` registered a 50% inhibitory concentration (IC50) with PBMC [1] above 10 µM.

For the compound `CN(C)CCn1cc(-c2ccc(CO)cc2)c2c(N[C@H](CO)c3ccccc3)ncnc21`, the 50% inhibitory concentration (IC50) in the assay with PBMC [1] is above 10 µM.

In the assay with PBMC [1], `Oc1ccccc1-c1cc2c(OC(c3ccccc3)C(F)(F)F)ncnc2s1` (centres undefined) returned an IC50 above 10 µM.

As to `CC(C)c1cc(C(C)C)c(-c2cc3c(N[C@H](C)c4ccccc4)ncnc3s2)c(C(C)C)c1`, the 50% inhibitory concentration (IC50) in the assay on PBMC [1] was above 10 µM.

`Oc1cccc(-c2cc3c(OC(c4ccccc4)C(F)(F)F)ncnc3s2)c1` (centres undefined) returned a concentration for half-maximal inhibition (IC50) in the assay on PBMC [1] above 10 µM.
